Experimental data from patent US12679801B2, “Amino lipid and preparation method and application thereof” (Shenzhen MagicRNA Biotechnology Co., Ltd., priority 2022, dated 2026).

What was measured:
[1] = tested on: BMDC primary cells; test: Luc mRNA LNP transfection of the four amino lipids on BMDC primary cells (Embodiment 28, Table 15); assay type: cell-based, C57BL/6 mice; details: Luc mRNA LNP 10 μL per well, 16 h, ONE-Glo Luciferase
Description: Preparation method: the same as that described above.
Animal preparation: 6-week-old female C57BL/6 mice with the body weight about 20 g were selected. The feeding environment was an SPF stage feeding room. Animal tests were strictly performed according to the guide of the national health institute and the animal ethics requirements.
(§1) Cell acquisition: C57BL/6 mice were killed through cervical dislocation, and were soaked for 5 min in 75% ethyl alcohol. Dissection was performed to obtain thigh and calf tibiae of the mice. Attached muscles were removed to expose sclerotin. Then, bone marrow in tibiae was blown out by using a 1 mL injector sucked with PBS. After the bone marrow was blown away, impurities were filtered away by a 50 μm filter screen. A red blood cell lysis buffer (3-4 mL) was added into an obtained filtrate. Then, after placement for 5 min, 800 g centrifugation was performed for 5 min to remove the supernatant. The obtained cells were placed into a 1640 culture medium (containing 10% fetal calf serum, 20 ng/mL GMCSF and 10 ng/ml IL4) to be resuspended, and were inoculated into a 6-well plate at an inoculation density of 100000 cells/ml culture medium. The materials were placed into a 37° C. cell incubator containing 5% CO2. Half liquid change was performed once every 2 days. Suspended cells and loose wall attached cells were collected on the seventh day, and were per well, and the volume of a culture medium was 100 μL.
(§2) Cell transfection: lipid nanoparticles coated with luciferase mRNA were added into a 96-well all-white ELISA plate laid with primary cells. The adding volume of the mRNA lipid nanoparticles in each well was controlled to be 10 μL. Then, the materials were put into a 37° C. incubator containing 5% CO2 for 16 h.
Transfection efficiency detection: 20 μL of a substrate ONE-Glo™ Luciferase was added into each well of a 96-well all-white ELISA plate. After 1 min, detection was performed by a multifunctional or multimode microplate reader. DLin-MC3 was used as a control.

[2] = tested on: HeLa cells; test: In-vitro evaluation of E7C71A9, Compound A, B, C as Luc-mRNA vector (Embodiment 27, Table 14); assay type: cell-based; details: Luc-mRNA 100 ng/well, 16-20 h, relative to Lipofectamine3000, lipid:DSPC:cholesterol:PEG2000-DMG 43:10.5:45:1.5
Excerpt: • Cell line: HeLa cell line • Culture medium: 1640 […] supplemented with 10% fetal calf serum • Screening form: 96-well plate cell transfection • Detection: fluorescence intensity detection by a multifunctional microplate reader. According to manufacturer's instructions, Lipofectamine3000 was used as a positive control group. • Method: a pipette was used for sample addition. The shown content is the content of a single well of a 96-well plate.
1. Synthesis of E7C71A9, Compound A, Compound B, and Compound C was performed as described above. And these four ionizable amino lipid compounds were respectively mixed with DSPC, cholesterol and PEG2000-DMG into absolute ethyl alcohol. according to a mole ratio of 43:10.5:45:1.5, The Luc-mRNA was dissolved into a sodium acetate buffer solution ([…], pH=5.0). The mixed lipid solution was taken out by a pipette, and was added into the Luc-mRNA solution to be sufficiently mixed. A proportion ratio of the ethyl alcohol solution to the sodium acetate buffer solution ([…], pH=5.0) was controlled to be 1:3, and a nanoparticle solution was prepared. A mass ratio of the amino lipid compound to luciferase mRNA (Luc mRNA) was about 10:1, and the mRNA consumption in each well was 100 ng.
2. After the lipid nanoparticle solution was incubated for 30 min at room temperature, 100 μL of fresh resuspended HeLa cells (1×10^4 cells) were added into each well of a 96-well all-white ELISA plate. Then, the lipid nanoparticle solution was added into the 96-well plate (10 μL for each well) by a pipette. The solution was placed into a 37° C. incubator containing 5% CO2 to be incubated.
3. After 16 h to 20 h of cell initial transfection, a substrate ONE-Glo™ Luciferase was added into cells at 100 μL/well, and after 2 min, detection was performed by a multifunctional or multimode microplate reader.
4. The relative transfection efficiency was calculated as follows: Relative transfection efficiency (%)=fluorescence intensity of LNP/fluorescence intensity of Lipofectamine3000×100%.

[3] = tested on: BMDC primary cells; test: Luc mRNA LNP transfection on BMDC primary cells (Embodiment 21, Table 9); assay type: cell-based, C57BL/6 mice; details: 16 h, ONE-Glo Luciferase
Description: Preparation method: the same as that in Embodiment 17.
Animal preparation: 6-week-old female C57BL/6 mice with the body weight about 20 g were selected. A feeding environment was an SPF stage feeding room. Animal tests were strictly performed according to the guide of the national health institute and the animal ethics requirements.
as §1, with “to remove a supernatant. The” for “to remove the supernatant. The”, “and 10 ng/mL IL4) to” for “and 10 ng/ml IL4) to”, “and were inoculated to a 96-well all-white ELISA plate at the inoculation density of 20000 cells per well,” for “and were per well,”
as §2, with “white” for “all-white”
Transfection efficiency detection: 20 μL of a substrate ONE-Glo™ Luciferase was added into each well of a 96-well all-white ELISA plate, and after 1 min, detection was performed by a multifunctional or multimode microplate reader.

[4] = tested on: B16-OVA melanoma cells; test: OVA mRNA LNP vaccine, in-vivo immunity and tumor treatment (Embodiment 23); parameters: species or system C57BL/6 mice; details: B16-OVA tumor-bearing mice, two intramuscular injections of LNP with 5 μg OVA-mRNA, 7 days apart
Description: Preparation method: the amino lipid compounds of the disclosure, DSPC, cholesterol and PEG2000-DMG were mixed according to a mole ratio of 50:10:38.5:1.5 in absolute ethyl alcohol. OVA mRNA was dissolved in a sodium acetate buffer solution (50 nM, pH=4.0). The ratio of the ethyl alcohol solution to the acetate buffer solution (50 nM, pH=4.0) was controlled to be 1:3 by using two micro-injection pumps to prepare a coarse solution of the lipid nanoparticles in a micro-fluidic chip. Then, dialysis was performed for 6 h under the conditions of 1×PBS and temperature control at 4° C. by using a dialysis cassettes or box (MWCO 20,000). Before use, filtration was performed by a 0.22 μm microporous filtering membrane. A mass ratio of the amino lipid compound to OVA mRNA was about 8:1.
(§3) Animal preparation: 5-6-week-old female C57BL/6 mice with the body weight about 18 to 20 g were selected. The feeding environment was an SPF stage feeding room. Animal tests were strictly performed according to the guide of the national health institute and the animal ethics requirements.
(§4) In-vivo delivery: B16-OVA melanoma cells (1.5×10^5) were injected to the outer thighs of the mice through subcutaneous injection. When the tumor grew to 50 mm^3 (on the about 6th or 7th day after tumor inoculation), the mice began to inoculated vaccines, the animals were subjected to twice immunization through intramuscular injection of an LNP preparation containing 5 μg OVA-mRNA. An interval between first and second injections was 7 days. The tumor growth was measured for 3 times every week by a digital display calliper, and a calculation formula was […]. When the tumor size reached 1500 mm^3, the mice received euthanasia.

[5] = tested on: B16-OVA melanoma cells; test: OVA mRNA LNP vaccine, in-vivo immunity and tumor treatment (Embodiment 15); parameters: species or system C57BL/6 mice; details: B16-OVA tumor-bearing mice, two intramuscular injections of LNP with 1 μg OVA-mRNA, 7 days apart
Description: Preparation method: the amino lipid compounds of the disclosure, DSPC, cholesterol and PEG2000-DMG were mixed according to a mole ratio of 50:10:38.5:1.5 and were dissolved in absolute ethyl alcohol. OVA mRNA was dissolved in a sodium acetate buffer solution (50 nM, pH=4.0). The obtained ethyl alcohol solution and the acetate buffer solution […] were mixed in a micro-fluidic chip according to a volume ratio of 1:3 by using a micro-fluidic preparation system to obtain lipid nanoparticles. Then, dialysis was performed for 6 h under the conditions of 1×PBS and temperature was controlled at 4° C. by using a dialysis cassettes or box (MWCO 20,000). Filtration was performed by a 0.22 μm microporous filtering membrane prior to use. The mass ratio of the amino lipid compound to OVA mRNA was about 10:1.
as §3
as §4, with “containing 1” for “containing 5”, “euthanasia. Additionally, 60% of mice (E7C71A9 group) and 40% of mice (E6C71A12 group) respectively reached the complete relieving effect.” for “euthanasia.”

[6] = tested on: BMDC primary cells; test: Luc mRNA LNP transfection on BMDC primary cells (Embodiment 13, Table 3); assay type: cell-based, C57BL/6 mice; details: 16 h, ONE-Glo Luciferase
Outline: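 Bone-marrow dendritic cells from female C57BL/6 mice were cultured 7 days with GM-CSF (20 ng/mL) and IL-4 (10 ng/mL). Cells were then exposed to luciferase mRNA LNPs for 16 h at 37° C., 5% CO2. Transfection was read as ONE-Glo luminescence.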

SMILES | Luciferase luminescence intensity [3] | further results
CCCCCCCCCCC(CCCCOC(=O)C(CCCCCC)CCCCCCCC)OC(=O)CCCN(C)C (stereo not shown) [Compound C] |  | Fluorescence intensity (transfection expression intensity) [1]: 9.3E+03; Relative Transfection Efficiency [2]: 0.39
CCCCCCCCCCC(COC(=O)C(CCCCCCCC)CCCCCCCC)OC(=O)CCCCN(C)C (stereo not shown) [E7C115A11] | 2.4E+05 | mice tumors completely disappeared [4]: 90%; survival rate [4]: 100%; survival rate compared with MC3 group (FIG. 6) [4]: obviously superior to that of MC3 group; tumor growth speed compared with MC3 group (FIG. 5) [4]: obviously lower than that of MC3 group
CCCCCCCCCC(COC(=O)C(CCCCCC)CCCCCCCC)OC(=O)CCCCCN(C)C (stereo not shown) [E6C71A12] |  | mice that reached the complete relieving effect [5]: 40%; result (survival curve, FIG. 4) compared with MC3 group [5]: obviously superior to that of MC3 group; tumor growth speed compared with MC3 group (FIG. 3) [5]: obviously lower than that of MC3 group; Luciferase luminescence intensity [6]: 7.3E+ 04
CCCCCCCCCCC(CCOC(=O)C(CCCCCC)CCCCCCCC)OC(=O)CCCN(C)C (stereo not shown) [Compound A, 3-((4-(dimethylamino)butanoyl)oxy)tridecyl 2-hexyldecanoate] |  | Fluorescence intensity (transfection expression intensity) [1]: 4.9E+04; Relative Transfection Efficiency [2]: 0.62
CCCCCCCCCCCCCCC(COC(=O)C(CCCCCCCC)CCCCCCCC)OC(=O)CCCN(C)C (stereo not shown) [E11C115A9] | 4.9E+04 | 
CCCCCCCCCC(CCCCCCCCC)C(=O)OCC(CCCCCCCC)OC(=O)CCCCN(C)C (stereo not shown) [E5C116A11] | 6.2E+04 | 
CCCCCCCCCCCC(COC(=O)CC(CCCCCCC)CCCCCCC)OC(=O)CCCN(C)C (stereo not shown) [E8C128A9] | 3.9E+04 | 
CCCCCCCCCCCCCC(COC(=O)C(CCCCC)CCCCCCCCCCC)OC(=O)CCCN(C)C (stereo not shown) [E10C111A9] | 3.7E+04 | 
CCCCCCCCCCCCC(COC(=O)C(CCCCCCCCC)CCCCCCCCC)OC(=O)CCCCN(C)C (stereo not shown) [E9C116A11] | 7.6E+04 | 
CCCCCCCCCCCCCCC(COC(=O)C(CCCCCCC)CCCCCCC)OC(=O)CCCCN(C)C (stereo not shown) [E11C114A11] | 6.5E+04 | 
CCCCCCCCCCCC(COC(=O)CC(CCCCC)CCCCCCCCC)OC(=O)CCCCN(C)C (stereo not shown) [E8C123A11] | 7.1E+04 | 
CCCCCCCCCCCC(COC(=O)C(CCCCCCCC)CCCCCCCC)OC(=O)CCCCN(C)C (stereo not shown) [E8C115A11] | 1.9E+05 | 
CCCCCCCCCCC(CCCC)C(=O)OCC(CCCCCCCC)OC(=O)CCCN(C)C (stereo not shown) [E5C104A9] | 5.2E+04 | 
CCCCCCCCCCCCC(CCCC)C(=O)OCC(CCCCCCCCCC)OC(=O)CCCN(C)C (stereo not shown) [E7C106A9] | 3.9E+04 | 
CCCCCCCCCCCCCC(COC(=O)C(CCCCCCC)CCCCCCC)OC(=O)CCCCN(C)C (stereo not shown) [E10C114A11] | 7.6E+04 | 
CCCCCCCCCCCCCC(COC(=O)CC(CCCCCCC)CCCCCCC)OC(=O)CCCN(C)C (stereo not shown) [E10C128A9] | 3.8E+04 | 
CCCCCCCCCCCCC(COC(=O)CC(CCCCC)CCCCCCCCC)OC(=O)CCCCN(C)C (stereo not shown) [E9C123A11] | 5.1E+04 | 
CCCCCCCCCCCCC(COC(=O)C(CCCCCCCC)CCCCCCCC)OC(=O)CCCN(C)C (stereo not shown) [E9C115A9] | 1.4E+05 | 
CCCCCCCCC(COC(=O)C(CCCCCCCC)CCCCCCCC)OC(=O)CCCCN(C)C (stereo not shown) [E5C115A11] | 1.1E+05 | 
